Test results taken from the supplement of paper PMC11061612.

What was measured:
Experiment in all cases: Bliss excess, mean over the matrix (fraction); higher = more synergy
[1] = system: SW1573 (Lung Adenocarcinoma)
Method in brief: (§1)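 After 24 hours at 37°C and 5% CO2 in 1536-well plates, cells in DMEM/F12 or RPMI plus 10% FBS received two-drug dose matrices for 72 hours. Viability came from CellTiter-Glo 2.0 luminescence and was scaled as inhibition, anchored at 0 by vehicle wells and at 1 by blank wells. Combination Emax is taken as the second-highest inhibition in the matrix, and Bliss excess as the observed combination effect less EA + EB − EA·EB, with EA and EB the single-agent effects.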

[2] = system: ESS-1 (Other Solid Carcinomas)
Method in brief: as §1

[3] = system: HH (T-Cell Non-Hodgkin's Lymphoma)
Method in brief: as §1

[4] = system: HuCCT1 (Biliary Tract Carcinoma)
Method in brief: as §1

[5] = system: LNZTA3WT4 (Low Grade Glioma)
Method in brief: as §1

[6] = system: BPH-1 (Non-Cancerous)
Method in brief: as §1

[7] = system: NCI-H209 (Small Cell Lung Carcinoma)
Method in brief: as §1

[8] = system: TGBC1TKB (Biliary Tract Carcinoma)
Method in brief: as §1

[9] = system: CAL-33 (Oral Cavity Carcinoma)
Method in brief: as §1

[10] = system: FTC-133 (Thyroid Gland Carcinoma)
Method in brief: as §1

[11] = system: ALL-PO (B-Lymphoblastic Leukemia)
Method in brief: as §1

[12] = system: YAPC (Pancreatic Carcinoma)
Method in brief: as §1

[13] = system: SNU-16 (Gastric Carcinoma)
Method in brief: as §1

[14] = system: Hs-746T (Gastric Carcinoma)
Method in brief: as §1

[15] = system: NCI-H524 (Small Cell Lung Carcinoma)
Method in brief: as §1

[16] = system: BFTC-909 (Kidney Carcinoma)
Method in brief: as §1

[17] = system: BE-13 (T-Lymphoblastic Leukemia)
Method in brief: as §1

[18] = system: L-428 (Hodgkin's Lymphoma)
Method in brief: as §1

[19] = system: HuH-7 (Hepatocellular Carcinoma)
Method in brief: as §1

[20] = system: LS-123 (Colorectal Carcinoma)
Method in brief: as §1

| SMILES | Bliss excess [1] | Bliss excess [2] | Bliss excess [3] | Bliss excess [4] | Bliss excess [5] | Bliss excess [6] | Bliss excess [7] | Bliss excess [8] | Bliss excess [9] | Bliss excess [10] | Bliss excess [11] | Bliss excess [12] | Bliss excess [13] | Bliss excess [14] | Bliss excess [15] | Bliss excess [16] | Bliss excess [17] | Bliss excess [18] | Bliss excess [19] | Bliss excess [20] |
| --- | --- | --- | --- | --- | --- | --- | --- | --- | --- | --- | --- | --- | --- | --- | --- | --- | --- | --- | --- | --- |
| CC1(C)CCC(CN2CCN(c3ccc(C(=O)NS(=O)(=O)c4ccc(NCC5CCOCC5)c([N+](=O)[O-])c4)c(Oc4cnc5[nH]ccc5c4)c3)CC2)=C(c2ccc(Cl)cc2)C1 [Venetoclax] + CN(C)CCCOc1ccc(-c2ccc3ncc4c(c3c2)n(C2CCOCC2)c(=O)n4C)cn1 [AZD0156] (first compound max 1 µM, 7x7, partner max 1 µM) | -0.0553 | -0.0515 | -0.0066 | -0.002 | -0.0469 | -0.0214 | 0.0423 | -0.0186 | -0.0064 | 0.0019 | 0.108 | -0.02 | -0.0015 | -0.0043 | 0.0028 | 0.0072 | 0.0084 | -0.0057 | 0.0028 | -0.0169 |
| CC1(C)CCC(CN2CCN(c3ccc(C(=O)NS(=O)(=O)c4ccc(NCC5CCOCC5)c([N+](=O)[O-])c4)c(Oc4cnc5[nH]ccc5c4)c3)CC2)=C(c2ccc(Cl)cc2)C1 [Venetoclax] + COc1cc(Nc2ncc3c(n2)-c2ccc(Cl)cc2C(c2c(F)cccc2OC)=NC3)ccc1C(=O)O [Alisertib] (first compound max 1 µM, 7x7, partner max 10 µM) | -0.0548 | 0.0748 | -0.0223 | -0.0148 | 0.023 | -0.0459 | 0.318 | -0.0367 | -0.0356 | 0.0138 | 0.0529 | -0.0354 | -0.052 | 0.0096 | -0.0902 | 0.0116 | -0.003 | 0.0501 | -0.0508 | 0.0288 |
| CC1(C)CCC(CN2CCN(c3ccc(C(=O)NS(=O)(=O)c4ccc(NCC5CCOCC5)c([N+](=O)[O-])c4)c(Oc4cnc5[nH]ccc5c4)c3)CC2)=C(c2ccc(Cl)cc2)C1 [Venetoclax] + C[C@@H]1COCCN1C2=NC(=NC(=C2)C3(CC3)[S@](=N)(=O)C)C4=C5C=CNC5=NC=C4 [AZD6738] (first compound max 1 µM, 7x7, partner max 10 µM) | -0.0705 | 0.0147 | -0.0012 | -0.012 | 0.0105 | -0.0336 | 0.127 | -0.0517 | -0.0489 | -0.0014 | 0.0306 | -0.0303 | -0.0218 | -0.063 | -0.0453 | -0.0384 | -0.0204 | 0.0164 | -0.0181 | -0.0395 |
| CC1(C)CCC(CN2CCN(c3ccc(C(=O)NS(=O)(=O)c4ccc(NCC5CCOCC5)c([N+](=O)[O-])c4)c(Oc4cnc5[nH]ccc5c4)c3)CC2)=C(c2ccc(Cl)cc2)C1 [Venetoclax] + C[C@@H](Nc1cc(F)cc(F)c1)c1cc(C(=O)N(C)C)cc2c(=O)cc(N3CCOCC3)oc12 [AZD8186] (first compound max 1 µM, 7x7, partner max 3 µM) | -0.0556 | -0.0118 | 0.0221 | -0.0383 | -0.0539 | -0.0385 | 0.1 | -0.0558 | -0.0241 | -0.0168 | 0.202 | -0.048 | 0.009 | -0.004 | -0.009 | 0.0073 | -0.0369 | 0.0037 | -0.0304 | 0.0135 |
| CC1(C)CCC(CN2CCN(c3ccc(C(=O)NS(=O)(=O)c4ccc(NCC5CCOCC5)c([N+](=O)[O-])c4)c(Oc4cnc5[nH]ccc5c4)c3)CC2)=C(c2ccc(Cl)cc2)C1 [Venetoclax] + Cc1cc2ncnn2cc1Nc1ncc2c(n1)n(C1CCOCC1)c(=O)n2C [AZD7648] (first compound max 1 µM, 7x7, partner max 10 µM) | -0.0609 | -0.0501 | -0.0061 | -0.0609 | -0.0353 | -0.0517 | 0.0416 | -0.043 | 0.0043 | -0.0156 | 0.11 | -0.0143 | -0.0396 | -0.0131 | -0.005 | 0.0017 | -0.0896 | -0.0548 | -0.022 | -0.0543 |
| CC1(C)CCC(CN2CCN(c3ccc(C(=O)NS(=O)(=O)c4ccc(NCC5CCOCC5)c([N+](=O)[O-])c4)c(Oc4cnc5[nH]ccc5c4)c3)CC2)=C(c2ccc(Cl)cc2)C1 [Venetoclax] + Cn1cnc2c(F)c(Nc3ccc(Br)cc3Cl)c(C(=O)NOCCO)cc21 [Selumetinib] (first compound max 1 µM, 7x7, partner max 3 µM) | -0.0621 | -0.0393 | -0.0387 | -0.0128 | -0.0321 | 0.0055 | 0.0379 | -0.0542 | -0.0292 | -0.0232 | 0.0801 | -0.0474 | -0.0052 | -0.0192 | -0.0392 | -0.0315 | -0.0418 | -0.0042 | -0.055 | -0.0512 |
